# Laboratory results reported in PMC4448986 (Pharmacology Research & Perspectives, 2015).
# What was measured:
# [1] = Water solubility by UV-vis; details: deionized water, 20 °C, thermodynamic from solid
# PK analysis in rats = format: in vivo; details: male, Sprague-Dawley, rat, plasma, po, 100 mg/kg
compound,measurement,setting,value
"C=C(c1ccc(C(=O)O)cc1)c1cc2c(cc1C)C(C)(C)CCC2(C)C [Compound 1, bexarotene]",solubility at 24 h,[1],0.28 ± 0.02 µM
same,AUC,PK analysis in rats,51500 ng·h/mL
same,AUC(0-inf),PK analysis in rats,54300 ng·h/mL
same,AUC(0-t),PK analysis in rats,51500 ng·h/mL
same,Tmax,PK analysis in rats,2 h
